Experiment [1] addresses TLR1/TLR2 (Mus musculus, UniProt Q9EPQ1+Q9QUN7). Description: TNF-α release from thioglycolate-elicited mouse peritoneal macrophages (ELISA). Particulars: for Emax: 4 h, read-out: Efficacy (magnitude) of response versus diprovocim-1 (100%), mouse macrophages; for EC50: read-out: EC50 (nM) (mouse): EC50 TNF-α release from mouse macrophages.
Procedure: Thioglycolate-elicited macrophages were recovered 4 days after i.p. injection of 2 mL BBL thioglycolate medium, brewer modified (4%; BD Biosciences) by peritoneal lavage with 5 mL phosphate buffered saline (PBS). […] Cells were seeded onto 96-well plates at 1×10^3 cells per well and treated with systematically varied concentrations of the candidate compounds (dissolved in DMSO, and final assay DMSO concentrations (0.5%) were kept constant in all experiments) for 4 h. Ultra-pure LPS (dissolved in H2O, Enzo Life Sciences) was assessed alongside the compounds as a positive control and DMSO treated controls. […] Mouse TNF-α in the supernatants was measured by ELISA kits according to the manufacturer's instructions (eBioscience). EC50's were calculated by Graphpad Prism. All data is mean of duplicates and SD is within ±10% of mean. Mouse cells were from wild type C57BL/6J mice.
The target of experiment [2] is TLR1/TLR2 (Homo sapiens, UniProt O60603+Q15399). Description: TNF-α release from PMA-differentiated human THP-1 cells (ELISA).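 For all read-outs here: cells exposed to graded compound concentrations for 4 h, TNF-α quantified in supernatant, LPS as positive and DMSO as negative control, values are duplicate means.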 The note with it: for Emax: THP-1, 4 h, read-out: Efficacy (magnitude) of response versus diprovocim-1 (100%), THP-1; for EC50: read-out: EC50 (nM) (THP-1): EC50 TNF-α release from human THP-1 cells.
Chain of TLR1/TLR2 (Homo sapiens, UniProt O60603+Q15399) (Q15399 25-786): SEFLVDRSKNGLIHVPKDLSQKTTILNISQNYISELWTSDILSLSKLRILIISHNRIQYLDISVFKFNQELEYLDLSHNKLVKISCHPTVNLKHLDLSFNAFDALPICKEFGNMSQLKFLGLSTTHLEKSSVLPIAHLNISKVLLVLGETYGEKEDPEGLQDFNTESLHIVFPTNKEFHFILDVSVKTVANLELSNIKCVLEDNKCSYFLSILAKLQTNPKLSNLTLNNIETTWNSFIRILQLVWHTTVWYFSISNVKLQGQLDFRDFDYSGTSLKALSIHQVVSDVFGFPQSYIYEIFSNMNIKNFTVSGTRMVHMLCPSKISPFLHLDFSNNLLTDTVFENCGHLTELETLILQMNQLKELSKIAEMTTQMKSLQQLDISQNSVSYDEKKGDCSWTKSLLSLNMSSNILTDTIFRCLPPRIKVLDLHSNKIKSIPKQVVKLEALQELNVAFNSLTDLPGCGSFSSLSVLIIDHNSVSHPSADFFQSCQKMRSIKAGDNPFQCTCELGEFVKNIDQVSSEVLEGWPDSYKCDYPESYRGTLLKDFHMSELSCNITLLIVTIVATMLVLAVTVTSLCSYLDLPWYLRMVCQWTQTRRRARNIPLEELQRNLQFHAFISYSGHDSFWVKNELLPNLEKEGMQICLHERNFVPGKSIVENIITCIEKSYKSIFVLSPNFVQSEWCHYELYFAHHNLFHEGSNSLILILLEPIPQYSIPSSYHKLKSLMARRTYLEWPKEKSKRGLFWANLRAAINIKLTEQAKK
Chain of TLR1/TLR2 (Homo sapiens, UniProt O60603+Q15399) (O60603 21-784): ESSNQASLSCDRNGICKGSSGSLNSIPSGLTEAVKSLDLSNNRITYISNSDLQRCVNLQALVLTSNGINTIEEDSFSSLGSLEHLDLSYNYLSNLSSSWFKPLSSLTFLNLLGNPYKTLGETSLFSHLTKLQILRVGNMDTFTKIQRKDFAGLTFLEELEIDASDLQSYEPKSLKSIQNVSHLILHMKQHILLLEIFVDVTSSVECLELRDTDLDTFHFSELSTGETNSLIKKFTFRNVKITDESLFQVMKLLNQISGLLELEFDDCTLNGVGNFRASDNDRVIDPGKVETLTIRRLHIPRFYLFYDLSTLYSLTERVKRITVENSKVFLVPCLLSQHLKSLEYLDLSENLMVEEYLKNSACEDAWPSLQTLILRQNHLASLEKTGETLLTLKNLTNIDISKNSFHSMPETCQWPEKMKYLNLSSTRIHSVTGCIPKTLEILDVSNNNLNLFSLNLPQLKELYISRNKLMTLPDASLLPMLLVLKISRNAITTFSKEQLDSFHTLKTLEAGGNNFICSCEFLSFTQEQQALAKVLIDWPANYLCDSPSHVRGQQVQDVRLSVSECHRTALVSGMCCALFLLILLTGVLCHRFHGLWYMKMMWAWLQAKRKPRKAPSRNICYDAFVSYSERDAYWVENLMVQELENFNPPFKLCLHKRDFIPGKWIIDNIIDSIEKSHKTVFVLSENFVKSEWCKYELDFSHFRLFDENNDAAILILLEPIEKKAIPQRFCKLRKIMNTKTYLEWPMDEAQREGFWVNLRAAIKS

Where two headings read alike, the source gives them in different places.

Chain of TLR1/TLR2 (Mus musculus, UniProt Q9EPQ1+Q9QUN7) (Q9EPQ1 26-795): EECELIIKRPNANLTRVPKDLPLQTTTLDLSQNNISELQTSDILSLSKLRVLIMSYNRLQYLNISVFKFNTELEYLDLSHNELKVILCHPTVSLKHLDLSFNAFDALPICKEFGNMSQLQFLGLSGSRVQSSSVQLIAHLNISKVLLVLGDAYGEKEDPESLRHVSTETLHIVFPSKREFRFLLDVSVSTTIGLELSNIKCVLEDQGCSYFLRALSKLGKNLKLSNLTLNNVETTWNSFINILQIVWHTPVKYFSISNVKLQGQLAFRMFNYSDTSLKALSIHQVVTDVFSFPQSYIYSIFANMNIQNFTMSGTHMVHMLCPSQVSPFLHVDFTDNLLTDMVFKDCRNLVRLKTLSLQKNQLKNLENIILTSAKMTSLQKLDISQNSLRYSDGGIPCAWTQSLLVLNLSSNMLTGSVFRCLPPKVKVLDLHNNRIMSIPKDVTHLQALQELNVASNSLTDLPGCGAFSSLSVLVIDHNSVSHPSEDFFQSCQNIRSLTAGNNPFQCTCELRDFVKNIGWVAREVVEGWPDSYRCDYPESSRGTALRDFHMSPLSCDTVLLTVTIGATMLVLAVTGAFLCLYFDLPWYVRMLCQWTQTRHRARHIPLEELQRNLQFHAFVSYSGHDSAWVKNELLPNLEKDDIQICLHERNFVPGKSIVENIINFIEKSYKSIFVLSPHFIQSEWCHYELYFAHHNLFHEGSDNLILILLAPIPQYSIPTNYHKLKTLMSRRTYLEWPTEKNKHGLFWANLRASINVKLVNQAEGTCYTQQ
Chain of TLR1/TLR2 (Mus musculus, UniProt Q9EPQ1+Q9QUN7) (Q9QUN7 25-784): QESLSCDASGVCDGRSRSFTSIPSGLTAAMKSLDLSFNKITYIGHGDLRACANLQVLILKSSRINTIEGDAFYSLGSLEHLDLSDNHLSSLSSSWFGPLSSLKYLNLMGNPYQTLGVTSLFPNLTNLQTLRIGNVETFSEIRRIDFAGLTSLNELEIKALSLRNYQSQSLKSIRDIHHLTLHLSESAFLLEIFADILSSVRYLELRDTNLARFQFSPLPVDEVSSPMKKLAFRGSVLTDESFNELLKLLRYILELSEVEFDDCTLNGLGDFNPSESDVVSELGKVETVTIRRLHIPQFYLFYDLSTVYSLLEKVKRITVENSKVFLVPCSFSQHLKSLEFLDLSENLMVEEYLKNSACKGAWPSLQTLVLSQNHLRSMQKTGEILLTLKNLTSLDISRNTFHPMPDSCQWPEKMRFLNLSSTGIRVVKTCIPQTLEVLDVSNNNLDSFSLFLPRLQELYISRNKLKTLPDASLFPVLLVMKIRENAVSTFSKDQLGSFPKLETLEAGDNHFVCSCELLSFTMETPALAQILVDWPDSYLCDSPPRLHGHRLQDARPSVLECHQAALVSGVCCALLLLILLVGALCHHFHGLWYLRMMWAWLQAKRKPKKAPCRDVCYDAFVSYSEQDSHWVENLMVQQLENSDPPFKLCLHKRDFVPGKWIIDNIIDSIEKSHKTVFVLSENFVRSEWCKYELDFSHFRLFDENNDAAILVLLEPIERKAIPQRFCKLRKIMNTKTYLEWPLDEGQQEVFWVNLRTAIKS

Turning to `COC(=O)CCCCCCCCCCCNC(=O)[C@@H]1CN(C(=O)c2ccc(C(=O)N3C[C@@H](C(=O)N[C@H]4C[C@@H]4c4ccccc4)[C@H](C(=O)N[C@H]4C[C@@H]4c4ccccc4)C3)cc2)C[C@H]1C(=O)N[C@H]1C[C@@H]1c1ccccc1` [Compound 3, Methyl 12-((3S,4S)-1-(4-((3S,4S)-3,4-bis(((1S,2R)-2-phenylcyclopropyl)carbamoyl)pyrrolidine-1-carbonyl)-benzoyl)-4-(((1S,2R)-2-phenylcyclopropyl)-carbamoyl)-pyrrolidine-3-carboxamido)-dodecanoate], at TLR1/TLR2 [1], the Emax was 100%. Moreover, on TLR1/TLR2 [1] (Table 1), the half-maximal effective concentration (EC50) is 1.4 nM.
Regarding `COC(=O)CCCCCCCCCNC(=O)[C@@H]1CN(C(=O)c2ccc(C(=O)N3C[C@@H](C(=O)N[C@H]4C[C@@H]4c4ccccc4)[C@H](C(=O)N[C@H]4C[C@@H]4c4ccccc4)C3)cc2)C[C@H]1C(=O)N[C@H]1C[C@@H]1c1ccccc1` [Compound 4, Methyl 10-((3S,4S)-1-(4-((3S,4S)-3,4-bis(((1S,2R)-2-phenylcyclopropyl)carbamoyl)pyrrolidine-1-carbonyl)-benzoyl)-4-(((1S,2R)-2-phenylcyclopropyl)-carbamoyl)-pyrrolidine-3-carboxamido)-decanoate], at TLR1/TLR2 [2], the Emax was determined as 100%.
Take `COC(=O)CCCCCNC(=O)[C@@H]1CN(C(=O)c2ccc(C(=O)N3C[C@@H](C(=O)N[C@H]4C[C@@H]4c4ccccc4)[C@H](C(=O)N[C@H]4C[C@@H]4c4ccccc4)C3)cc2)C[C@H]1C(=O)N[C@H]1C[C@@H]1c1ccccc1` [Compound 6, Methyl 6-((3S,4S)-1-(4-((3S,4S)-3,4-bis(((1S,2R)-2-phenylcyclopropyl)carbamoyl)pyrrolidine-1-carbonyl)-benzoyl)-4-(((1S,2R)-2-phenylcyclopropyl)carbamoyl)-pyrrolidine-3-carboxamido)-hexanoate]: the 50% effective concentration (EC50) on TLR1/TLR2 [2] (Table 1) came to 45 nM; at TLR1/TLR2 [1] (Table 1) it was 1100 nM.
For `O=C(NCCCCCCCCCCCCO)[C@@H]1CN(C(=O)c2ccc(C(=O)N3C[C@@H](C(=O)N[C@H]4C[C@@H]4c4ccccc4)[C@H](C(=O)N[C@H]4C[C@@H]4c4ccccc4)C3)cc2)C[C@H]1C(=O)N[C@H]1C[C@@H]1c1ccccc1` [Compound 7, (3S,4S)-1-(4-((3S,4S)-3,4-Bis(((1S,2R)-2-phenyl-cyclopropyl)carbamoyl)pyrrolidine-1-carbonyl)-benzoyl)-N^3-(12-hydroxydodecyl)-N^4-((1S,2R)-2-phenyl-cyclo-propyl)pyrrolidine-3,4-dicarboxamide], the Emax at TLR1/TLR2 [2] came to 90%; on TLR1/TLR2 [1], 110%. Moreover, the concentration giving a half-maximal response (EC50) on TLR1/TLR2 [2] (Table 3) was found to be 0.21 nM; at TLR1/TLR2 [1] (Table 3), 1.2 nM.
As to `O=C(NCCCCCCCCCCO)[C@@H]1CN(C(=O)c2ccc(C(=O)N3C[C@@H](C(=O)N[C@H]4C[C@@H]4c4ccccc4)[C@H](C(=O)N[C@H]4C[C@@H]4c4ccccc4)C3)cc2)C[C@H]1C(=O)N[C@H]1C[C@@H]1c1ccccc1` [Compound 8, (3S,4S)-1-(4-((3S,4S)-3,4-Bis(((1S,2R)-2-phenyl-cyclopropyl)carbamoyl)pyrrolidine-1-carbonyl)benzoyl)-N^3-(10-hydroxydecyl)-N^4-((1S,2R)-2-phenylcyclopropyl)-pyrrolidine-3,4-dicarboxamide], the Emax came to 90% at TLR1/TLR2 [2] and 110% at TLR1/TLR2 [1].
In the case of `O=C(NCCCCCCCCO)[C@@H]1CN(C(=O)c2ccc(C(=O)N3C[C@@H](C(=O)N[C@H]4C[C@@H]4c4ccccc4)[C@H](C(=O)N[C@H]4C[C@@H]4c4ccccc4)C3)cc2)C[C@H]1C(=O)N[C@H]1C[C@@H]1c1ccccc1` [Compound 9, (3S,4S)-1-(4-((3S,4S)-3,4-Bis(((1S,2R)-2-phenyl-cyclopropyl)carbamoyl)pyrrolidine-1-carbonyl)-benzoyl)-N^3—(8-hydroxyoctyl)-N^4-((1S,2R)-2-phenyl-cyclopropyl)pyrrolidine-3,4-dicarboxamide], the EC50 on TLR1/TLR2 [2] (Table 1) is 4.3 nM; at TLR1/TLR2 [1] (Table 1) it was 93 nM.
As to `O=C(NCCCCCCO)[C@@H]1CN(C(=O)c2ccc(C(=O)N3C[C@@H](C(=O)N[C@H]4C[C@@H]4c4ccccc4)[C@H](C(=O)N[C@H]4C[C@@H]4c4ccccc4)C3)cc2)C[C@H]1C(=O)N[C@H]1C[C@@H]1c1ccccc1` [Compound 10, (3S,4S)-1-(4-((3S,4S)-3,4-Bis(((1S,2R)-2-phenyl-cyclo-propyl)carbamoyl)pyrrolidine-1-carbonyl)-benzoyl)-N^3-(6-hydroxyhexyl)-N^4-((1S,2R)-2-phenyl-cyclopropyl)-pyrrolidine-3,4-dicarboxamide], the concentration for a half-maximal effect (EC50) at TLR1/TLR2 [2] (Table 1) amounted to 90 nM; on TLR1/TLR2 [1] (Table 1) it was 180 nM.
As to `O=C(O)CCCCCCCCCCCNC(=O)[C@@H]1CN(C(=O)c2ccc(C(=O)N3C[C@@H](C(=O)N[C@H]4C[C@@H]4c4ccccc4)[C@H](C(=O)N[C@H]4C[C@@H]4c4ccccc4)C3)cc2)C[C@H]1C(=O)N[C@H]1C[C@@H]1c1ccccc1` [Compound 11, 12-((3S,4S)-1-(4-((3S,4S)-3,4-Bis(((1S,2R)-2-phenyl-cyclopropyl)carbamoyl)pyrrolidine-1-carbonyl)benzoyl)-4-(((1S,2R)-2-phenylcyclopropyl)carbamoyl)pyrrolidine-3-carboxamido)-dodecanoic acid], the Emax came out at 100% on TLR1/TLR2 [2] and 110% on TLR1/TLR2 [1]. For the same compound, the half-maximal effective concentration (EC50) at TLR1/TLR2 [2] (Table 1) stood at 3.4 nM; at TLR1/TLR2 [1] (Table 1), 280 nM.
On to `NC(=O)CCCCCCCCCCCNC(=O)[C@@H]1CN(C(=O)c2ccc(C(=O)N3C[C@@H](C(=O)N[C@H]4C[C@@H]4c4ccccc4)[C@H](C(=O)N[C@H]4C[C@@H]4c4ccccc4)C3)cc2)C[C@H]1C(=O)N[C@H]1C[C@@H]1c1ccccc1` [Compound 12, (3S,4S)—N^3-(12-Amino-12-oxododecyl)-1-(4-((3S,4S)-3,4-bis(((1S,2R)-2-phenylcyclopropyl)-carbamoyl)-pyrrolidine-1-carbonyl)benzoyl)-N^4-((1S,2R)-2-phenyl-cyclopropyl)pyrrolidine-3,4-dicarboxamide], for which the Emax at TLR1/TLR2 [2] turned out to be 110%; at TLR1/TLR2 [1], 120%. Moreover, the EC50 on TLR1/TLR2 [2] (Table 1) turned out to be 0.9 nM; on TLR1/TLR2 [1] (Table 1), 60 nM.
With `CC(C)(C)OC(=O)CCOCCOCCOCCNC(=O)[C@@H]1CN(C(=O)c2ccc(C(=O)N3C[C@@H](C(=O)N[C@H]4C[C@@H]4c4ccccc4)[C@H](C(=O)N[C@H]4C[C@@H]4c4ccccc4)C3)cc2)C[C@H]1C(=O)N[C@H]1C[C@@H]1c1ccccc1` [Compound 28, tert-Butyl 1-((3S,4S)-1-(4-((3S,4S)-3,4-bis(((1S,2R)-2-phenylcyclopropyl)carbamoyl)pyrrolidine-1-carbonyl)-benzoyl)-4-(((1S,2R)-2-phenylcyclopropyl)carbamoyl)-pyrrolidin-3-yl)-1-oxo-5,8,11-trioxa-2-azatetradecan-14-oate], the concentration for a half-maximal effect (EC50) at TLR1/TLR2 [2] (Table 2) amounted to 3.1 nM.
Regarding `COC(=O)CCOCCOCCOCCNC(=O)[C@@H]1CN(C(=O)c2ccc(C(=O)N3C[C@@H](C(=O)N[C@H]4C[C@@H]4c4ccccc4)[C@H](C(=O)N[C@H]4C[C@@H]4c4ccccc4)C3)cc2)C[C@H]1C(=O)N[C@H]1C[C@@H]1c1ccccc1` [Compound 29, Methyl 1-((3S,4S)-1-(4-((3S,4S)-3,4-bis(((1S,2R)-2-phenylcyclopropyl)carbamoyl)pyrrolidine-1-carbonyl)benzoyl)-4-(((1S,2R)-2-phenylcyclopropyl)carbamoyl)-pyrrolidin-3-yl)-1-oxo-5,8,11-trioxa-2-azatetradecan-14-oate], the Emax on TLR1/TLR2 [2] stood at 110%. Besides, the half-maximal effective concentration (EC50) on TLR1/TLR2 [2] (Table 2) came out at 40 nM.

The values are drawn from patent US20250367166A1, “NEXT GENERATION DIPROVOCIMS THAT ACTIVATE THE INNATE AND ADAPTIVE IMMUNE RESPONSE” (The Scripps Research Institute, priority 2022, published 2025).
